Tested on: plasma Abeta1-40
Experiment: Plasma Abeta1-40 in human subjects after oral thiethylperazine (INNO-BIA plasma Abeta forms immunoassay)
Assay type: in vivo
Settings: for average increase in plasma Abeta1-40: day 1; for subjects with an increase of plasma Abeta1-40: oral
Experimental: Samples of 10 ml venous blood were collected in standardized test tubes containing ethylene diamine tetraacetic acid (EDTA) and gently shaken 1-2 times. As soon as possible (within max. 30 min.) samples were centrifuged at 1600 g, room temperature for 10 min. Plasma was aliquoted into 6 portions of 0.5 ml. All aliquots were frozen into a deep freezer (-80° C.) within 10 min after the centrifugation and stored until use. Abeta measurements were performed using the bead-based INNO-BIA plasma Abeta forms immunoassay (Innogenetics/Fujirebio Europe, Gent, Belgium) according to the manufacturer's protocol. Plasma samples and all other kit reagents were prepared according to the manufacturer's protocol. In brief, plasma samples were thawed at room temperature, centrifuged at 4000 g for 10 min to remove any possible debris, vortexed and then diluted 3-fold using Plasma Diluent. After transferring into the filter plate diluted samples, controls and standards were washed and incubated shaking overnight at 4° C. after the addition of the first conjugate. On the next day, all wells were washed 3 times and incubated with detection conjugate for 1 h at room temperature. After another 3 times washing, reading solution was added to all wells and the measurements were performed on a Luminex IS 100 (Luminex Corporation, Austin, TX, USA) platform after 2 minutes of shaking. Luminex instrument settings used were: gate-7500 to 15000, sample volume-50 μL and counts per region-100 beads. Standard curve calculation was performed using Stata 14.2 (StataCorp, College Station, TX, USA) employing a four-parametric logistic fit (nl log4 command). All standards, controls, and the patients' samples were analyzed in duplicates; all samples from a given individual were assayed in one analytical run. The duplicate-averaged concentrations (in pg/ml) of the two biomarkers (Abeta1-40 and Abeta1-42) were calculated. In all eight standard-curves fitting models (4 runs×2 biomarkers), adjusted R-squared statistics were higher than 0.995, which speaks for excellent curve fitting quality. Herein below, thiethylperazine was used as thiethylperazine maleate, wherein the weight-based amounts [in mg] are indicated with respect to thiethylperazine; the weight-based amounts of thiethylperazine maleate [in mg] are indicated in parenthesis. […] On day 1 (t=0 h), blood samples were taken from all subjects. […] Plasma Abeta was considered an indicator of brain Abeta content and Abeta export with higher plasma Abeta concentrations indicating higher Abeta clearance from the brain (Ferrero, Williams et al. 2016, […], Chiao et al. 2016).

SMILES: CCSc1ccc2c(c1)N(CCCN1CCN(C)CC1)c1ccccc1S2 [thiethylperazine, 2-(ethylsulfanyl)-10-[3-(4-methylpiperazin-1-yl)propyl]-10H-phenothiazine]
- mean plasma Abeta1-40 concentration difference between responders and non-responders (6.5 mg thiethylperazine): 33.04 pg/mL
- average increase in plasma Abeta1-40 (6.5 mg thiethylperazine): 7.8%
- mean plasma Abeta1-40 concentration difference between responders and non-responders (13 mg thiethylperazine): 28.07 pg/mL
- average increase in plasma Abeta1-40 (13 mg thiethylperazine): 7.8%
- subjects with an increase of plasma Abeta1-40 (26 mg thiethylperazine (41.12 mg maleate) per day over three consecutive days, steady state, 15 subjects (comparative)): 40%
- average change of plasma Abeta1-40 (26 mg thiethylperazine per day over three consecutive days, steady state): 6.5%
- mean plasma Abeta1-40 concentration difference between responders and non-responders (26 mg thiethylperazine, steady state): 16.53 pg/mL
- subjects with an increase of plasma Abeta1-40 (after second administration on day 1, dose of 13 mg thiethylperazine (20.56 mg maleate), 15 subjects): 87%
- subjects with an increase of plasma Abeta1-40 (initial dose of 6.5 mg thiethylperazine (10.28 mg maleate), day 1, blood four hours after administration, 15 subjects): 53%
- average increase in plasma Abeta1-40 higher compared to higher dose (lower dose 2-20 mg (6.5 mg and 13 mg) versus 26 mg): ≥ 20%
